Some test systems named below: CCRF-CEM leukemia; COLO 205 colon; DU-145 prostate; NCI-H23 lung; NCI-H460 lung; OVCAR-5 ovarian; RXF 393 renal; SN12C renal; SR leukemia; U251 CNS.
Common to all, as to assay: DTP human tumour cell line panel, 48 h

Each structure is given as a SMILES string. Values joined by “and” are separate entries in the source; they are usually repeats but may differ in a detail not shown here. Equal entries are not always repeated.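 48-hour exposure; five concentrations; linearly interpolated endpoints. GI50: concentration for 50% inhibition of growth. TGI: concentration producing complete growth inhibition.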 A value given as a limit tells only on which side of the number the result lay.

For the compound `CC(=O)C1=C(O)C=C2Oc3c(C(=O)/C=C/c4cc(C(F)(F)F)cc(C(F)(F)F)c4)c(O)c(C)c(O)c3[C@]2(C)C1=O`, the GI50 (commonly the concentration that inhibits growth by half) in the test on CCRF-CEM leukemia is 0.487 µM; with COLO 205 colon, 0.527 µM; with DU-145 prostate, 0.63 µM; with NCI-H23 lung, 0.528 µM; in the test with NCI-H460 lung it was 0.521 µM; with OVCAR-5 ovarian it was 0.757 µM. Also, the GI50 is 0.673 µM in the test with RXF 393 renal, 0.513 µM in the test with SN12C renal, 0.44 µM in the test on SR leukemia and 0.532 µM in the test on U251 CNS. Also, the TGI (usually the concentration at which net growth stops) came out at 3.82 µM with CCRF-CEM leukemia; 1.75 µM with COLO 205 colon; 4.91 µM in the test with DU-145 prostate; 2.87 µM in the test on NCI-H23 lung; 1.9 µM in the test with NCI-H460 lung; 4.46 µM with OVCAR-5 ovarian. Also, the TGI in the test with RXF 393 renal was 3.08 µM; in the test with SN12C renal, 2.02 µM; in the test with SR leukemia it was 3.32 µM; in the test on U251 CNS, 1.7 µM.

For the compound `Cc1ccccc1NC(=S)Nc1ccccn1`, the GI50 is greater than 100 µM with CCRF-CEM leukemia; greater than 100 µM in the test on COLO 205 colon; greater than 100 µM in the test on DU-145 prostate; 85.3 µM in the test with NCI-H23 lung; greater than 100 µM in the test on NCI-H460 lung; greater than 100 µM in the test with OVCAR-5 ovarian. Further, the GI50 in the test on RXF 393 renal is 13.9 µM; in the test with SN12C renal, greater than 100 µM; in the test with SR leukemia, greater than 100 µM; in the test on U251 CNS, greater than 100 µM. Also, the TGI with CCRF-CEM leukemia, with COLO 205 colon, with DU-145 prostate, with NCI-H23 lung, in the test on NCI-H460 lung and with OVCAR-5 ovarian was greater than 100 µM throughout. Also, the concentration for total growth inhibition (TGI) in the test with RXF 393 renal, in the test with SN12C renal, with SR leukemia and with U251 CNS was greater than 100 µM each time.

On to `Cc1c2cc[nH]c(=O)c2c(C)c2c1[nH]c1cc(OCCN3CCN(C)CC3)ccc12`, for which the GI50 is 1.58 µM in the test with CCRF-CEM leukemia; 0.353 µM in the test with COLO 205 colon; 0.813 µM in the test on DU-145 prostate; 0.833 µM with NCI-H23 lung; 0.418 µM in the test on NCI-H460 lung; 0.944 µM with OVCAR-5 ovarian. For the same compound, the GI50 with RXF 393 renal was 1.21 µM; with SN12C renal it was 0.389 µM; with SR leukemia, 0.314 µM; with U251 CNS, 0.953 µM. Moreover, the TGI is 8.99 µM with CCRF-CEM leukemia; 2.2 µM with COLO 205 colon; 8.97 µM in the test on DU-145 prostate; 3.67 µM with NCI-H23 lung; 1.84 µM with NCI-H460 lung; 11.6 µM with OVCAR-5 ovarian. The TGI in the test with RXF 393 renal was 2.72 µM; with SN12C renal, 3.31 µM; in the test with SR leukemia it was 12 µM; in the test with U251 CNS, 6.66 µM.

With `CC(C)[C@](O)(c1ccc2cc(OC(F)F)c(OC(F)F)cc2c1)c1cn[nH]n1`, the GI50 was 23.8 µM and 24.2 µM in the test with CCRF-CEM leukemia; 17 µM and 21.5 µM in the test with COLO 205 colon; 19.1 µM and 16.4 µM in the test on DU-145 prostate; 16.8 µM and 15.8 µM with NCI-H23 lung; 18.9 µM and 17.7 µM in the test with NCI-H460 lung; 21.7 µM and 22.9 µM in the test with OVCAR-5 ovarian. For the same compound, the GI50 was 15 µM and 14.4 µM with RXF 393 renal; 19.2 µM and 15.6 µM with SN12C renal; 24.7 µM and 12.1 µM in the test with SR leukemia; 16.5 µM and 16.1 µM with U251 CNS. The TGI in the test on CCRF-CEM leukemia is 59 µM and 85.1 µM; in the test with COLO 205 colon, 33.9 µM and 43.2 µM; in the test with DU-145 prostate, 45.6 µM and 32 µM; in the test on NCI-H23 lung it was 40.1 µM and 35.2 µM; with NCI-H460 lung it was 34.9 µM and 34.3 µM; with OVCAR-5 ovarian it was 65.1 µM and 64.9 µM. In addition, the TGI in the test with RXF 393 renal is 29.1 µM and 28.3 µM; in the test with SN12C renal, 36.8 µM and 32.2 µM; in the test with SR leukemia, 56.7 µM and 44.9 µM; in the test with U251 CNS it was 33.5 µM and 32 µM.

Turning to `Cc1nc2sccn2c1/C=C1/C(=O)Nc2ccccc21`, the GI50 was 5.01 µM in the test on CCRF-CEM leukemia; 3.11 µM with COLO 205 colon; 24.4 µM in the test on DU-145 prostate; greater than 30.3 µM with NCI-H23 lung; 5.05 µM in the test with NCI-H460 lung; 38.3 µM in the test on OVCAR-5 ovarian. For the same compound, the GI50 is 19.7 µM in the test on RXF 393 renal, 5.69 µM with SN12C renal, 1.26 µM in the test with SR leukemia and 4.96 µM in the test on U251 CNS. Moreover, the TGI is greater than 100 µM with CCRF-CEM leukemia; greater than 45.9 µM in the test on COLO 205 colon; greater than 100 µM in the test with DU-145 prostate; greater than 100 µM in the test with NCI-H23 lung; greater than 100 µM in the test on NCI-H460 lung; greater than 100 µM with OVCAR-5 ovarian. Also, the TGI with RXF 393 renal is greater than 80.9 µM; in the test with SN12C renal, greater than 100 µM; in the test on SR leukemia, 5.44 µM; with U251 CNS it was greater than 74.3 µM.

On to `COc1ccc(-c2[nH]ncc2-c2cc3c(c(OC)c2)OCC(=O)N3)cc1`, for which the GI50 is 0.398 µM in the test on CCRF-CEM leukemia; 0.465 µM in the test on COLO 205 colon; 1.18 µM in the test on DU-145 prostate; 1.46 µM with NCI-H23 lung; 0.365 µM with NCI-H460 lung; 2.17 µM in the test with OVCAR-5 ovarian. The GI50 was 0.392 µM with RXF 393 renal, 0.63 µM in the test with SN12C renal, 0.285 µM with SR leukemia and 0.481 µM with U251 CNS. For the same compound, the TGI in the test on CCRF-CEM leukemia was greater than 100 µM; in the test with COLO 205 colon, 12.8 µM; with DU-145 prostate it was greater than 100 µM; with NCI-H23 lung, greater than 77.7 µM; with NCI-H460 lung, 4.79 µM; with OVCAR-5 ovarian, greater than 100 µM. Moreover, the TGI in the test on RXF 393 renal was 2.55 µM; in the test on SN12C renal it was greater than 100 µM; in the test on SR leukemia, greater than 47.7 µM; in the test with U251 CNS, greater than 100 µM.

Consider `Cc1cc(C)nc(NC(N)=NCCc2ccccc2)n1`, for which the GI50 was 5.19 µM in the test with CCRF-CEM leukemia; 2.68 µM in the test with COLO 205 colon; 3.4 µM in the test on DU-145 prostate; 7.02 µM with NCI-H23 lung; 3.43 µM with NCI-H460 lung; 9.81 µM with OVCAR-5 ovarian. For the same compound, the GI50 with RXF 393 renal is 7.22 µM; in the test with SN12C renal, 3.2 µM; in the test on SR leukemia it was 2.77 µM; with U251 CNS, 3.15 µM. For the same compound, the TGI with CCRF-CEM leukemia is greater than 100 µM; with COLO 205 colon, 12.5 µM; with DU-145 prostate, greater than 100 µM; in the test on NCI-H23 lung it was greater than 100 µM; with NCI-H460 lung, greater than 100 µM; in the test with OVCAR-5 ovarian it was greater than 100 µM. Also, the TGI was 77.2 µM with RXF 393 renal, 35.8 µM in the test on SN12C renal, 14.5 µM with SR leukemia and greater than 100 µM with U251 CNS.
